Data as given in US8080417B2, “Methods of ex vivo hematopoietic stem cell expansion by co-culture with mesenchymal cells” (priority 2004, dated 2011).

Experiments:
[1] = cited from earlier work
[2] = system: hematopoietic stem cells (mononuclear cells co-cultured with mesenchymal cells); test: Mesenchymal-MNC co-culture at 21 days +/- Nicotinamide 5 mM: cell counts and surface markers; assay type: cell-based, human
Excerpt: Isolation of mesenchymal cells: Mononuclear cells containing mesenchymal cells from bone marrow were obtained from a […] prepared by negative immuno-depletion of CD3, CD14, CD19, CD38, CD66b, and glycophorin-A positive cells using a commercially available kit (RosetteSep®, StemCell Technologies, Vancouver, BC, Canada), as per manufacturer's instructions. […] Blood 90 Suppl. 1 347b, 1997 (abst)]. The immuno-depleted cells were harvested, and then either further separated by layering on a Ficoll-Paque (Amersham-Pharmacia, Piscataway, N.J., USA) density gradient column (1.077 g/cm^3) and centrifuged at 400×g for 30 minutes, or cultured without further separation. The collected cells were plated in T75 non-coated tissue culture flasks (Nunc) at a concentration of 2×10^5 cells/ml, in expansion medium containing: low glucose DMEM and 20% Fetal Bovine Serum (FBS, Hyclone, Logan, Utah, USA) supplemented with or without 10 ng/ml bFGF (Pepro Tech Inc, Rocky Hill N.J.), 0.05 mg/ml gentamicin (Sigma Inc., St. Louis, Mo.) and 2 mM L-glutamine (Biological Industries, Israel). Selected cells were allowed to adhere for 3-4 days and non-adherent cells were washed out with medium changes. Some experiments were initiated as well with the entire MNC fraction.
Maintenance and expansion of mesenchymal cells: When adherent mesenchymal cells reached approximately 80-90% confluence, they were detached with 0.25% trypsin-EDTA (Sigma, Inc. St Louis, Mo.), washed twice in DMEM and 20% Fetal Bovine Serum, with centrifugation, 400 g, 5 min., and re-plated at a 1:2 to 1:1000 dilution under the same culture conditions.
(§1) Mesenchymal hematopoietic co-cultures: Mesenchymal cultures were established as described above. After reaching confluence, the mesenchymal medium was discarded and replaced with fresh, hematopoietic supportive medium containing early acting or early and late acting cytokines, and hematopoietic cells selected from; cord blood, bone marrow, placenta or peripheral blood mononuclear cells or purified progenitor cells (CD34+ or CD133+ cells), with or without a modulator of cell fate. Mononuclear or purified stem and/or progenitor cells were isolated and prepared for ex-vivo culture as previously described (see, above, or, for example, PCT IL05/000753). At different intervals the non-adherent cells were harvested, analyzed for hematopoietic potential by functional analysis (clonogenic assay, CFU, etc), and re-cultured in a stroma-free medium. The stromal layer was then re-supplemented with fresh hematopoietic supportive medium (medium including 10% FCS, SCF, TPO, FLT3, and IL6). This process was repeated several times during two to six weeks co-culture duration (as on day 10, day 14, etc).
Immunophenotyping: At different time points the cells were detached with 1 mM EDTA (15′, 37° C.). The detached cells were washed with a PBS solution containing 1% BSA, and stained (at 4° C. for 30 min) with either fluorescein isothiocyanate (FITC) or phycoerythrin (PE)-conjugated antibodies: mesenchymal markers 105 PE, 105 FITC (Serotec), 73 PE, and 49b PE, and other, non-mesenchymal markers such as 45 FITC, 14 FITC, HLA-DR FITC (BD Biosciences Pharmngen), 34 PE (Dako, Carpenteria, Calif., USA), HLA class1 PE, (BD Biosciences Pharmingen, San Diego Calif.). The cells were then washed in the above buffer and analyzed using a FACScalibur® flow cytometer (Becton Dickinson and Co, San Jose, Calif., USA). Cells were passed at a rate of about 1000 cells/second, using saline as the sheath fluid. A 488 nm argon laser beam served as the light source for excitation. Emission of ten thousand cells was measured using logarithmic amplification and calculated using the cellQuest software.

[3] = system: hematopoietic stem cells (from bone marrow) co-cultured with mesenchymal cells; test: Long-term Mesenchymal-MNC co-culture (21 days +/- Nicotinamide, then 5 weeks cytokines only), assessed at 8 weeks; assay type: cell-based, human
Protocol: (§2) Assay for Colony Forming Units (CFU)—Cells were cloned in semi-solid, methylcellulose-containing medium supplemented with 2 IU/mL erythropoietin (Eprex, Cilag AG Int., Switzerland), stem cell factor and IL-3, both at 20 ng/mL, G-CSF and GM-CSF, both at 10 ng/mL (all from Pepro Tech, Rocky Hill, N.J.). Cultures were incubated for 14 days at 37° C. in humidified atmosphere of 5% CO2 in air.
In order to determine the long-term effects of modulators of cell fate on the long-term engraftment potential of hematopoietic stem cells, CFUc, CD34+ and CD34+/CD38− cells were assessed in co-cultured cells at 8 weeks (5 weeks after removal of nicotinamide from the medium).
The mononuclear cell fraction, prepared as described above, was expanded in co-culture with mesenchymal cells in medium supplemented with cytokines and 5 mM nicotinamide, as described hereinabove, for 21 days. After 21 days, the medium was replaced with medium supplemented with cytokines only, and expansion in co-cultures continued for another 5 weeks. At 8 weeks, the expanded cells were assessed for hematopoietic stem cell markers (CD34+ and CD34+/CD38−), and for engraftment potential (CFUc), as described hereinabove.

[4] = system: CD34+/CXCR4+ cells in hematopoietic stem cells co-cultured with mesenchymal cells; test: CXCR4 in Mesenchymal-MNC co-culture at 21 days (CD34/CXCR4 double staining); assay type: cell-based, human; settings: for Number of CD34+CXCR4+ cells: 21 days, co-culture + cytokines + Nicotinamide 5 mM; for % Increase of CD34+CXCR4+ cells: vs co-culture + cytokines without nicotinamide
Excerpt: Induction of CXCR4 expression in hematopoietic stem cells results in increased sensitivity to lower levels of SDF-1, increased migration of the cells to SDF-1, improved proliferation and survival of the hematopoietic stem cells in-vitro and in-vivo, and improved engraftment potential of the induced cells. Similarly, it has been shown that blockage of CXCR4 with specific antibodies prevents engraftment of hematopoietic stem cells (Brenner, et al Stem Cells 2004; 22:1128-33; Kahn et al, Blood, 2004; 103:2942-49; Peled et al, Science 1999; 283:845-48). In order to investigate the effect of modulators of cell fate on CXCR4 expression in hematopoietic stem cells in co-culture with mesenchymal cells, the population of CD34+/CXCR4+ cell in co-cultured cells was detected and quantified by double staining with PE labeled CD34 and FITC labeled CXCR4. […] This enhanced CXCR4 expression contributes to the enhanced engraftment potential of the expanded, undifferentiated hematopoietic stem cells.

[5] = system: hematopoietic stem cells (mononuclear cells co-cultured with mesenchymal cells); test: Assay for Colony Forming Units (CFU) on 21-day mesenchymal-MNC co-culture; assay type: cell-based, human; settings: Table 3 experiment; 21 days; Nicotinamide 5 mM
Excerpt: as §1
as §2, with “Cultures were incubated for 14 days at 37° C. in humidified atmosphere of 5% CO2 in air.” left out

[6] = Table 1 experiment, 21 days, Nicotinamide 5 mM
[7] = Table 2 experiment, 21 days, Nicotinamide 5 mM
[8] = Table 3 experiment, 21 days, Nicotinamide 5 mM
[9] = Table 4 experiment, 21 days, Nicotinamide 5 mM
[10] = 21 days Nicotinamide 5 mM then 5 weeks cytokines only

O=c1cc(N2CCOCC2)oc2c(-c3ccccc3)cccc12 [LY294002]
stability in tissue culture medium [1]: very stable

NC(=O)c1cccnc1 [Nicotinamide, nicotinamide]
CD34+CD38− (×10^4) [2, 6]: 304 ×10^4 | CD34+Lin− (×10^4) [2, 6]: 25 ×10^4 | TNC × 10^6 [2, 6]: 309 × 10^6 | CD34+CD38− (×10^4) [2, 7]: 1238 ×10^4 | CD34+Lin− (×10^4) [2, 7]: 689 ×10^4 | TNC × 10^6 [2, 7]: 309 × 10^6 | CD34+ (×10^4) [2, 8]: 1553 ×10^4 | CD34+/TNC [2, 8]: 5.3% | CD34+CD38− (×10^4) [2, 8]: 82 ×10^4 | TNC × 10^6 [2, 8]: 292 × 10^6 | CD34+/TNC ([2]; Table 3 experiment, 21 days, Nicotinamide 5 mM, listed as nicotinamide): 5.3% | CD34+ (×10^4) [2, 9]: 216 ×10^4 | CD34+/TNC [2, 9]: 1.5% | CD34+CD38− (×10^4) [2, 9]: 63 ×10^4 | CD34+Lin− (×10^4) [2, 9]: 1.54 ×10^4 | TNC × 10^6 [2, 9]: 144 × 10^6 | CD34+/TNC ([2]; Table 4 experiment, 21 days, Nicotinamide 5 mM, listed as nicotinamide): 1.5% | greater expansion of stem cells (CD34+) relative to total nucleated cells, compared with cocultures without nicotinamide ([2]; Tables 3 and 4, 21 days, Nicotinamide 5 mM): ≤ 2.3 times | increase of the proportion of CD34+/38− cells and CD34+/Lin− cells in the cultures ([2]; with nicotinamide, in some cases, Tables 1-5): > 10 fold | CD34+ cells (cumulative) [3, 10]: 264 × 10^6 | CD34+/CD38− (%) [3, 10]: 6.3% | CFUc (cumulative) [3, 10]: 28 × 10^6 | Fold Increase (%) of CD34+ cells (cumulative) ([3]; vs co-culture + cytokines): 235% | Fold Increase (%) of CD34+/CD38− (%) ([3]; vs co-culture + cytokines): 1050% | Fold Increase (%) of CFUc (cumulative) ([3]; vs co-culture + cytokines): 215% | Number of CD34+CXCR4+ cells ([4]; Exp 1): 65 × 10^4 | % Increase of CD34+CXCR4+ cells ([4]; Exp 1): 80% | Number of CD34+CXCR4+ cells ([4]; Exp 2): 200 × 10^4 | % Increase of CD34+CXCR4+ cells ([4]; Exp 2): 33% | CFU (×10^3) [5]: 4331 ×10^3
